Reference: patent publication US6797721B2, “Phorboxazole derivatives for treating cancer” (Parker Hughes Institute, priority 1999, dated 2004)
pIC50: −log10 of the molar value.

What was measured:
leukemia NALM-6 cells = assay: Mitochondrial transmembrane potential assay (DiIC1(5) staining); type: cell-based, human; conditions: 2.5 nM, 5 nM or 10 nM, 72 hours
Experimental: FIG. 2 are graphs showing the effect of synthetic phorboxazole A and phorboxazole A derivatives on the mitochondrial transmembrane potentials of leukemia NALM-6 cells.
Cells were incubated with 2.5 nM, 5 nM or 10 nM of phorboxazole A, 33-O-methyl-phorboxazole A or 45,46-dehydrobromo-phorboxazole A for 72 hours, stained with DiICl (5) to assess the mitochondrial membrane potential (Δψm) and then analyzed with a cell sorter equipped with a HeNe laser.

[1] = system: BT-20 human breast cancer cells; assay: Clonogenic assay, BT-20; type: cell-based; conditions: 7 days; for inhibition at 0.001 µM / inhibition at 0.01 µM / inhibition at 0.1 µM: Homo sapiens, 168 h, read-out: Inhibition of clonogenic growth
Experimental: (§1) The growth-inhibiting activity of the synthetic Phorboxazole A and the synthesized derivatives was tested in clonogenic assays. Cancer cells were treated with 1 nM, 10 nM, and 100 nM doses of synthetic Phorboxazole A or derivatives of phorboxazole A. Treated cells included U373 human glioblastoma cells, NALM-6, human B-lineage acute lymphoblastic leukemia cells, and BT-20 human breast cancer cells. The cancer cells were resuspended in clonogenic medium consisting of alpha-MEM supplemented with 0.9% methylcellulose, 30% fetal bovine serum, and 50 μM 2-mercaptoethanol. Cells were plated in duplicate Petri dishes at 100,000 cells/mL/dish and cultured in a humidified 5% CO2 incubator for 7 days. Cancer cell colonies were enumerated on a grid using an inverted phase microscope of high optical resolution. Results were expressed as % inhibition of clonogenic cells at a particular concentration of the test agent using the formula:
(§2) % Inhibition=(1−Mean # of colonies [Test]/Mean # of colonies [Control]×100.

[2] = system: U373 glioblastoma spheroids; assay: Cell migration from glioblastoma spheroids; type: cell-based, human; conditions: U373 spheroids on fibronectin-coated coverslips; 48 hours; varied concentrations
Experimental: U373 glioblastoma spheroids of 200 to 400 micrometers in diameter were treated with synthetic Phorboxazole A, 33-O-Methyl-phorboxazole A, and 45,46-dehydrobromo-phorboxazole A in 0.1% DMSO at varied concentrations. Cells were incubated with the inhibitor or with control DMSO in the absence of inhibitor compound for two hours, and then transferred to fibronectin-coated coverslips. The spheroids were then incubated in DMEM containing […] at 37° C. for 48 hours.
In addition, multi-cellular U373 glioblastoma spheroids of 200-400 μm diameter were incubated with 500 nM, 250 nM, 125 nM, 62.5 nM and […] phorboxazoleA, 29-phorboxamide A, 18-methyl phorboxylate and 31-methyl phorboxylate in 0.1% DMSO or 0.1% DMSO alone for 2 hours and transferred to fibronectin-coated coverslips. The spheroids were then incubated in MEM containing respective compounds and cultured for 48 hours at 37° C. At the end of incubation, the spheroids were fixed and stained with Hema-3 solutions. The distance of migrated cells from spheroids was measured using a mircoscope and micrometer.

[3] = system: NALM-6 human B-lineage acute lymphoblastic leukemia cells; assay: MTT cytotoxicity assay, NALM-6; type: cell-based; conditions: NALM-6 (leukemia, ALL), 24-36 hours, read-out: IC50 [MTT]
Experimental: (§3) The cytotoxicity assay of synthetic Phorboxazole A and various derivative compounds against human tumor cells was performed using the MTT (3-[4,5-dimethylthiazol-2-yl]-2,5-diphenyl tetrazolium bromide) assay (Boehringer Mannheim Corp., Indianapolis, Ind.). Briefly, exponentially growing brain tumor cells were seeded into a 96-well plate at a density of 2.5×10^4 cells/well and incubated for 36 hours at 37° C. prior to drug exposure. On the day of treatment, culture medium was carefully aspirated from the wells and replaced with fresh medium containing the various phorboxazole A derivative compounds as well as the tyrosine kinase inhibitory isoflavone genistein (GEN) at concentrations ranging from 0.1 to 250 μM. Triplicate wells were used for each treatment.
(§4) Human glioblastoma cells U373 (brain cancer), human B-lineage acute lymphoblastic leukemia cells NALM-6, and human breast cancer cells BT-20 were obtained from American Type Culture Collection (Rockville, Md.) and maintained as a continuous cell line in Dulbecco's modified Eagles's medium supplemented with 10% fetal bovine serum and antibiotics.
(§5) The cells were incubated with the various compounds for 24-36 hours at 37° C. in a humidified 5% CO2 atmosphere. To each well, 10 μl of MTT (0.5 mg/ml final concentration) was added and the plates were incubated at 37° C. for 4 hours to allow MTT to form formazan crystals by reacting with metabolically active cells. The fonnazan crystals were solubilized overnight at 37° C. in a solution containing 10% SDS in 0.01 M HCl. The absorbance of each well was measured in a microplate reader (Labsystems) at 540 nm and a reference wavelength of 690 nm. To translate the OD540 values into the number of live cells in each well, the OD540 values were compared to those on standard OD540-versus-cell number curves generated for each cell line. The percent survival was calculated using the formula: [formula]
(§6) The IC50 values were calculated by non-linear regression analysis.

[4] = system: BT-20 human breast cancer cells; assay: MTT cytotoxicity assay, BT-20; type: cell-based; conditions: BT-20 (breast cancer), 24-36 hours, read-out: IC50 [MTT]
Experimental: as §3, §4, §5, §6

[5] = system: human breast cancer cell line BT-20; assay: In situ detection of apoptosis (nick-end-labeling, confocal microscopy); type: cell-based; conditions: final concentration of 100 μM, 24 hours
Experimental: The synthetic Phorboxazole A and the synthetic analogs were also assayed for apoptosis-inducing activity. Assay for apoptosis was performed by the in situ nick-end-labeling method using an ApopTag in situ detection kit (Oncor, Gaithersburg, Md.) according to the manufacturer's reconmmendations. Immunofluorescence was used to examine the morphologic features of human breast cancer cell line BT-20 (American Type Culture Collection Rockville, Md.) treated with the novel phorboxazole A derivatives of the present invention.
Cells were trypsinized from rapidly growing tissue culture flasks and seeded onto sterile 22 mm^2 coverslips in 6-well culture plates. Cells on coverslips were returned to the incubator for 24 hours prior to treatment. The phorboxazole A derivatives were added to the cells from a stock solution made in DMSO to a final concentration of 100 μM. Final DMSO concentration were kept at 0.1% in both test samples and controls. Cells were returned to a 37° C. incubation for 24 hours before further processing. At 24 hours, coverslips were fixed in −20° C. methanol for 15 minutes followed by a 15 minute incubation in phosphate buffered saline +0.1% Triton X-100 (PBS-Tx). Coverslips were then incubated with a monoclonal antibody against α-tubulin (Sigma Chemical Co., St. Louis, Mo.) at a dilution of 1:1000 for 40 minutes in a humidified chamber at 37° C. Coverslips were washed for 15 minutes in PBS-Tx followed by a 40 minute incubation with goat anti-mouse IgG antibody conjugated to FITC (Amersham Corp., Arlington Heights, Ill.). The coverslips were again rinsed in PBS-Tx and incubated with 5 μM TOTO-3 (Molecular Probes, Eugene, Oreg.) for 20 minutes to label the nuclear DNA. Coverslips were immediately inverted onto slides in Vectashield (Vector Labs, Burlingame) to prevent photobleaching, sealed with nail varnish and stored at 4° C.
Slides were examined using a Bio-Rad MRC-1024 Laser Scanning Confocal Microscope mounted on a Nikon Eclipse E800 upright microscope with high numerical aperture objectives. […]

[6] = system: U373 human glioblastoma cells; assay: MTT cytotoxicity assay, U373; type: cell-based; conditions: U373 MG, U373 (brain tumor, glioblastoma), 24-36 hours, read-out: IC50 [MTT]
Experimental: as §3, §4, §5, §6

[7] = system: U373 human glioblastoma cells; assay: Clonogenic assay, U373; type: cell-based; conditions: 7 days; for inhibition at 0.01 µM / inhibition at 0.1 µM: Homo sapiens, U373 MG, 168 h, read-out: Inhibition of clonogenic growth
Experimental: as §1, §2

[8] = system: NALM-6 B-lineage ALL cells; assay: Clonogenic assay, NALM-6; type: cell-based, human; conditions: 7 days; for inhibition at 0.001 µM / inhibition at 0.01 µM / inhibition at 0.1 µM: Homo sapiens, 168 h, read-out: Inhibition of clonogenic growth
Experimental: as §1, §2

C#CC[C@H](/C=C/C(C)=C/[C@@H](O)[C@H]1C[C@@H](OC)C[C@@](O)(Cc2nc(/C=C(\C)[C@@H]3O[C@@H]4C/C=C/c5nc(co5)[C@H]5C[C@H](O)C[C@@H](C[C@H]6CC(=C)C[C@H](C/C=C\C(=O)O[C@@H]([C@H]4C)[C@H]3C)O6)O5)co2)O1)OC [Compound 8, 45,46-Dehydrobromo-Phorboxazole A]
Depolarized mitochondria (mitochondrial membrane potential) (leukemia NALM-6 cells): progressive increase in depolarized mitochondria
Mean Number Colonies/10^4 cells ([1]; 1 nM): 1540
Mean Number Colonies/10^4 cells ([1]; 10 nM): 1062
Mean Number Colonies/10^4 cells ([1]; 100 nM): 0
inhibition at 0.001 µM ([1]; 1 nM): 0%
inhibition at 0.01 µM ([1]; 10 nM): 30.3%
inhibition at 0.1 µM ([1]; 100 nM): > 99.9%
Inhibition of cell migration from the spheroid [2]: significantly inhibited cell migration
pIC50 [3]: 8.32
pIC50 [4]: 7.90
Apoptosis-inducing activity [5]: apoptotic activity
pIC50 [6]: 7.56
Mean Number Colonies/10^4 cells ([7]; 10 nM): 586
Mean Number Colonies/10^4 cells ([7]; 100 nM): 144
inhibition at 0.01 µM ([7]; 10 nM): 10.7%
inhibition at 0.1 µM ([7]; 100 nM): 78.1%
Mean Number Colonies/10^4 cells ([8]; 1 nM): 2116
Mean Number Colonies/10^4 cells ([8]; 10 nM): 293
Mean Number Colonies/10^4 cells ([8]; 100 nM): 0
inhibition at 0.001 µM ([8]; 1 nM): 0%
inhibition at 0.01 µM ([8]; 10 nM): 85.7%
inhibition at 0.1 µM ([8]; 100 nM): > 99.9%

C=C1C[C@@H]2C[C@@H]3C[C@@H](O)C[C@@H](O3)c3coc(n3)/C=C/C[C@H]3O[C@@H](/C(C)=C/c4coc(C[C@]5(OC)C[C@H](OC)C[C@H]([C@H](O)/C=C(C)/C=C/[C@@H](C/C=C/Br)OC)O5)n4)[C@H](C)[C@@H](OC(=O)/C=C\C[C@@H](C1)O2)[C@H]3C [Compound 9, 33-O-methyl-Phorboxazole A]
Depolarized mitochondria (mitochondrial membrane potential) (leukemia NALM-6 cells): progressive increase in depolarized mitochondria
Mean Number Colonies/10^4 cells ([1]; 1 nM): 1824
Mean Number Colonies/10^4 cells ([1]; 10 nM): 1430
Mean Number Colonies/10^4 cells ([1]; 100 nM): 0
inhibition at 0.001 µM ([1]; 1 nM): 0%
inhibition at 0.01 µM ([1]; 10 nM): 6.2%
inhibition at 0.1 µM ([1]; 100 nM): > 99.9%
Inhibition of cell migration from the spheroid [2]: significantly inhibited cell migration
pIC50 [3]: 8.28
pIC50 [4]: 7.95
Apoptosis-inducing activity [5]: apoptotic activity
pIC50 [6]: 7.53
Mean Number Colonies/10^4 cells ([7]; 10 nM): 578
Mean Number Colonies/10^4 cells ([7]; 100 nM): 0
inhibition at 0.01 µM ([7]; 10 nM): 11.9%
inhibition at 0.1 µM ([7]; 100 nM): > 99.8%
Mean Number Colonies/10^4 cells ([8]; 1 nM): 1760
Mean Number Colonies/10^4 cells ([8]; 10 nM): 422
Mean Number Colonies/10^4 cells ([8]; 100 nM): 0
inhibition at 0.001 µM ([8]; 1 nM): 14%
inhibition at 0.01 µM ([8]; 10 nM): 79.4%
inhibition at 0.1 µM ([8]; 100 nM): > 99.9%
